This passage reports IC50 results from US10487068B2, “Pyridazine derivatives as RORc modulators” (Genentech, Inc., priority 2015, dated 2019).

Each structure is given as a SMILES string.

The test concerns the target T1, RORc ligand binding domain (Homo sapiens, UniProt P51449).
T1 sequence (P51449 269-508 limits assumed): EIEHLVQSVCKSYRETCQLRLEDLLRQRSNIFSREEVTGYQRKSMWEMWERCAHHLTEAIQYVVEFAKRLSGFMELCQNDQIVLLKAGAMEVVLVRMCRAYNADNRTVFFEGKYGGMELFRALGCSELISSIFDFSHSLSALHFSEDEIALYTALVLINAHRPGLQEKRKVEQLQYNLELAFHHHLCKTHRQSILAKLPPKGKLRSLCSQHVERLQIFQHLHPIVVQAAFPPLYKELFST
As to the kind of experiment: In Vitro RORc Ligand Binding Assay. The conditions noted are these: RORc IC50, radioligand 25-[3H]hydroxycholesterol 6 nM; 0.6 ug/mL RORc receptor; 3 h at 25° C.

For `CC[C@](C)(O)c1coc(-c2cncc([C@@]34CC[C@@H](c5cc(-c6c(F)cccc6F)nnc53)C4(C)C)n2)n1` [Example 429, (S)-2-(2-(6-((5R,8S)-3-(2,6-difluorophenyl)-9,9-dimethyl-5,6,7,8-tetrahydro-5,8-methanocinnolin-8-yl)pyrazin-2-yl)oxazol-4-yl)butan-2-ol], the half-maximal inhibitory concentration (IC50) was found to be 13.8 nM.
The result for `CC[C@@](C)(O)c1coc(-c2cncc([C@@]34CC[C@@H](c5cc(-c6c(F)cccc6F)nnc53)C4(C)C)n2)n1` [Example 430, (R)-2-(2-(6-((5R,8S)-3-(2,6-difluorophenyl)-9,9-dimethyl-5,6,7,8-tetrahydro-5,8-methanocinnolin-8-yl)pyrazin-2-yl)oxazol-4-yl)butan-2-ol] reads 15 nM.
The result for `CC1(C)[C@H]2CC[C@]1(c1cncc(-c3nc(C(O)(O)C(F)(F)F)co3)n1)c1nnc(-c3c(F)cccc3F)cc12` [Example 431, 1-(2-(6-((5R,8S)-3-(2,6-difluorophenyl)-9,9-dimethyl-5,6,7,8-tetrahydro-5,8-methanocinnolin-8-yl)pyrazin-2-yl)oxazol-4-yl)-2,2,2-trifluoroethane-1,1-diol] reads 21.3 nM; that for `CC(C)(O)c1nc(-c2cncc([C@@]34CC[C@@H](c5cc(-c6c(F)cccc6F)nnc53)C4(C)C)n2)oc1Cl` [Example 432, 2-(5-chloro-2-(6-((5R,8S)-3-(2,6-difluorophenyl)-9,9-dimethyl-5,6,7,8-tetrahydro-5,8-methanocinnolin-8-yl)pyrazin-2-yl)oxazol-4-yl)propan-2-ol], 18 nM.
Take `CC(C)(O)c1nc(-c2cncc([C@@]34CC[C@@H](c5cc(-c6c(F)cccc6F)nnc53)C4(C)C)n2)oc1CO` [Example 433, 2-(2-(6-((5R,8S)-3-(2,6-difluorophenyl)-9,9-dimethyl-5,6,7,8-tetrahydro-5,8-methanocinnolin-8-yl)pyrazin-2-yl)-5-(hydroxymethyl)oxazol-4-yl)propan-2-ol]: the IC50 is 38.5 nM.
Then `CCS(=O)(=O)Cc1coc(-c2cncc([C@@]34CC[C@@H](c5cc(-c6c(F)cccc6F)nnc53)C4(C)C)n2)n1` [Example 434, 2-(6-((5R,8S)-3-(2,6-difluorophenyl)-9,9-dimethyl-5,6,7,8-tetrahydro-5,8-methanocinnolin-8-yl)pyrazin-2-yl)-4-((ethylsulfonyl)methyl)oxazole], with 11 nM; and `CC1(C)[C@H]2CC[C@]1(c1cncc(-c3nc(CS(=O)(=O)C4CC4)co3)n1)c1nnc(-c3c(F)cccc3F)cc12` [Example 435, 4-((cyclopropylsulfonyl)methyl)-2-(6-((5R,8S)-3-(2,6-difluorophenyl)-9,9-dimethyl-5,6,7,8-tetrahydro-5,8-methanocinnolin-8-yl)pyrazin-2-yl)oxazole], with 11.7 nM; and `COC(=O)c1n[nH]c(=O)cc1[C@@]12CC[C@@H](c3cc(-c4c(F)cccc4F)nnc31)C2(C)C` [Example 436], with 192 nM.
